# Experimental data reported in US20050220895A1, “Use of gallium to treat inflammatory arthritis” (priority 2003, published 2005).
# “Also recorded” adds a separate entry of the source.
# Assays:
# [1] = test system: male Lewis rats with streptococcal (PGPS) cell wall induced arthritis; assay: Streptococcal cell wall (PGPS)-induced chronic arthritis model; type: in vivo; settings: 100, 200 and 300 mg/kg daily oral gavage, 35 days
# [2] = Serum gallium levels, chronic arthritis study; type: in vivo, rat; settings: Study PG-PS/TT-1, 100 mg/kg, 1% MC suspension, 35 days, pretreatment 13 days, fasted, 1 hour post-dosing
# Method: (§1) Materials and methods: Male Lewis rats (N=12/group) with developing streptococcal (PGPS) cell wall induced arthritis were treated with gallium maltolate (100, 200 or 300 mg/kg, po, qd) or Cyclosporin A (CSA, 5-20 mg/kg) prophylactically beginning 1 day after intra-articular injection of PGPS into the ankles (day −14) and continued for 14 days at which time systemic reactivation was induced by intravenous (iv) injection of PGPS (day 0). Treatment was continued for another 14 days and animals were reactivated a second time (day 14). Following an additional week of treatment, rats were terminated for a total of […] of dosing. Rats were weighed on days (−)13, (−)7, 0, 8, 14 and 21, at which time, dose volumes were adjusted. Right ankle caliper measurements were taken on days 0, 2, 4, 6, 8, 10, 12, 14, 16, 18, 20 and 21. […] All rats had terminal blood samples obtained for PK sampling. Scoring of Joints: PGPS arthritic ankles are given scores of 0-5 (normal to severe) for inflammation, pannus, cartilage damage, bone resorption and periosteal bone proliferation according criteria similar to the acute arthritis study. The primary endpoint is periarticular inflammation and bone resorption as quantitated by ankle caliper measurements and histopathologic evaluation of ankles (scoring of joints).
# The following data was compiled from the above described model studies. […]
# [3] = Serum gallium levels, acute arthritis studies; type: in vivo, rat; settings: for Mean Serum Gallium Concentration: 14 days, 1 hour post-dosing
# Method: Materials and methods: For the adjuvant-induced acute arthritis model, male Lewis rats (7 per group for Gallium Maltolate, 4 per group for normal controls and dexamethasone-treated controls) were injected with 100 μl of Freund's complete adjuvant/lipoidal amine (FCA/LA) subcutaneously at the base of the tail on study day 0 under anesthesia. The rapid onset (within 7 days) of arthritic symptoms in this model includes ankle inflammation, bone resorption, and mild cartilage destruction. […] The dexamethasone-treated control animals were administered a daily oral dose of dexamethasone (0.1 mg/kg). Body weights were measured regularly during the course of the study to track the effect of the drugs on the weight loss induced by the developing adjuvant disease, and dose volumes were adjusted accordingly. Prior to the onset of swelling, but after the establishment of systemic disease (about 7 days after adjuvant injection), caliper measurements were made of ankle joints. Ankles were measured every day until 14 days post-adjuvant injection when the rats were anesthetized and euthanized. Serum was harvested one hour after final dosing for gallium quantitation. Hind paws, liver and spleen were weighed, fixed and processed for histopathologic evaluation. Adjuvant arthritic ankles were given scores of 0-5 (0=normal; 5=severe) for inflammation and bone resorption. Splenic changes of inflammation, increased extramedullary hematopoiesis and lymphoid atrophy were scored 0-5 using criteria similar to those used for scoring of inflammation. The primary endpoint is periarticular inflammation and bone resorption as quantitated by ankle caliper measurements and histopathologic evaluation of ankles (scoring of joints). Secondary endpoints include body weight change and the inhibition of splenomegaly and hepatomegaly.
# The following data was compiled from the above described model studies. All sampling was done 1 hour post-dosing.
# [4] = test system: male Lewis rats with adjuvant-induced acute arthritis; assay: Adjuvant-induced acute arthritis model; type: in vivo
# Method: (§2) Two preclinical animal models were tested for oral gallium efficacy in inflammatory polyarthritis; adjuvant-induced acute arthritis and streptococcal cell wall-induced chronic arthritis, respectively. Male Lewis rats were used in both studies. The models are described in detail in Bendele et al. (1999) Toxicologic Pathology 27(1):134-142 and Bendele (2001) J. Musculoskel. Neuron. Interact. 1(4):377-385.
# Materials and methods: For the adjuvant-induced acute arthritis model, male Lewis rats (7 per group for Gallium Maltolate, 4 per group for normal controls and dexamethasone-treated controls) were injected with 100 μl of Freund's complete adjuvant/lipoidal amine (FCA/LA) subcutaneously at the base of the tail on study day 0 under anesthesia. The rapid onset (within 7 days) of arthritic symptoms in this model includes ankle inflammation, bone resorption, and mild cartilage destruction. Prophylactic treatment was initiated by dosing with control vehicle or Gallium Maltolate (100 or 300 mg/kg) by daily oral gavage, from seven days prior to adjuvant injection until termination. The dexamethasone-treated control animals were administered a daily oral dose of dexamethasone (0.1 mg/kg). Body weights were measured regularly during the course of the study to track the effect of the drugs on the weight loss induced by the developing adjuvant disease, and dose volumes were adjusted accordingly. Prior to the onset of swelling, but after the establishment of systemic disease (about 7 days after adjuvant injection), caliper measurements were made of ankle joints. Ankles were measured every day until 14 days post-adjuvant injection when the rats were anesthetized and euthanized. Serum was harvested one hour after final dosing for gallium quantitation. Hind paws, liver and spleen were weighed, fixed and processed for histopathologic evaluation. Adjuvant arthritic ankles were given scores of 0-5 (0=normal; 5=severe) for inflammation and bone resorption. Splenic changes of inflammation, increased extramedullary hematopoiesis and lymphoid atrophy were scored 0-5 using criteria similar to those used for scoring of inflammation. The primary endpoint is periarticular inflammation and bone resorption as quantitated by ankle caliper measurements and histopathologic evaluation of ankles (scoring of joints). Secondary endpoints include body weight change and the inhibition of splenomegaly and hepatomegaly.
# [5] = test system: male Lewis rats with streptococcal (PGPS) cell wall induced arthritis; assay: Streptococcal cell wall (PGPS)-induced chronic arthritis model; type: in vivo
# Method: as §2
# This is a multiple reactivated peptidoglycan-polysaccharide (PGPS)-induced arthritis model. The rapid onset (4-5 days) of arthritic symptoms in this model includes ankle inflammation, bone resorption, mild cartilage destruction.
# as §1
# [6] = 100 or 300 mg/kg daily oral gavage, both doses
structure (smiles),measurement,setting,value
"Cc1occc(=O)c1[O-].Cc1occc(=O)c1[O-].Cc1occc(=O)c1[O-].[Ga+3] [gallium maltolate, tris(3-hydroxy-2-methyl-4H-pyran-4-onato) gallium]",safety / signs of toxicity,[1],safe and showed no signs of toxicity; also recorded: safe with no signs of toxicity
same,Mean Serum Gallium Concentration,[2],2050 ng/mL
same,serum gallium levels attained,[3]; 100 or 300 mg/kg daily oral gavage,dose-dependent
same,Mean Serum Gallium Concentration,"[3]; Study LATT-1, 100 mg/kg, solution, pretreatment 1 day, not fasted",652 ng/mL
same,Mean Serum Gallium Concentration,"[3]; Study LATT-2, 100 mg/kg, 1% MC suspension, pretreatment 1 day, fasted",1350 ng/mL
same,Mean Serum Gallium Concentration,"[3]; Study LATT-2, 300 mg/kg, 1% MC suspension, pretreatment 1 day, fasted",3470 ng/mL
same,Mean Serum Gallium Concentration,"[3]; Study LATT-2, 300 mg/kg, 1% MC suspension, pretreatment 7 days, fasted",2960 ng/mL
same,safety / signs of toxicity,"[4]; 100 or 300 mg/kg daily oral gavage in 1% methyl cellulose, 14 days, Lewis rats",safe and showed no signs of toxicity; also recorded: safe with no signs of toxicity
same,bone resorption scores,[4]; [6],significant reduction
same,liver and spleen hypertrophy (weights),[4]; [6],dose-related decrease; also recorded: marked reduction
same,effect on body weight (arthritis-induced body weight loss),"[4]; gallium maltolate 100 or 300 mg/kg, dexamethasone 0.1 mg/kg, daily oral",favorable effect
same,"ankle (joint) inflammation, clinical and histological","[4]; gallium maltolate 100 or 300 mg/kg, dexamethasone 0.1 mg/kg, daily oral, vs disease control",reduced ankle inflammation; also recorded: significant reduction; also recorded: Significant dose dependent protection
same,spleen histopathology: atrophy of the lymphoid tissue,[4]; oral gallium maltolate,prevented atrophy
same,spleen histopathology: inflammation in the spleen,[4]; oral gallium maltolate,significantly reduced inflammation
same,inflammation after the first reactivation of arthritis on day 0,[5]; 300 mg/kg oral,slight inhibition
same,"ankle swelling, first reactivation","[5]; 300 mg/kg, day 12",reduced the swelling significantly
same,bone resorption,"[5]; 100, 200 or 300 mg/kg po qd",Significant dose dependent anti-inflammatory effects
same,cartilage (damage),"[5]; 100, 200 or 300 mg/kg po qd",Significant dose dependent anti-inflammatory effects
same,histological inflammation scores,"[5]; 100, 200 or 300 mg/kg po qd",dose-related inhibition
same,pannus,"[5]; 100, 200 or 300 mg/kg po qd",dose-related effect; also recorded: Significant dose dependent anti-inflammatory effects
same,periosteal proliferation,"[5]; 100, 200 or 300 mg/kg po qd",dose-related effect; also recorded: Significant dose dependent anti-inflammatory effects
same,paw weights after the second reactivation,"[5]; 100, 200 or 300 mg/kg po qd, all treated groups",decreased
same,"inhibition of the sum of the scores for inflammation, pannus, cartilage damage and bone damage (joint histopathology)","[5]; 100, 200 or 300 mg/kg po qd, dose responsive",20-45%
same,"ankle swelling after the second reactivation (flare-up, day 14)","[5]; gallium maltolate 100, 200 or 300 mg/kg po qd, Cyclosporin A 5-20 mg/kg",decreased ankle swelling
same,"peak effect on ankle swelling, time after the flare-up",[5]; second reactivation on day 14,≤ 6 days
same,start of decreased ankle swelling after the flare-up,[5]; second reactivation on day 14,≤ 2 days
